In ChEMBL document CHEMBL2440009, “Discovery of GSK2656157: An Optimized PERK Inhibitor Selected for Preclinical Development” (ACS Med Chem Lett, 2013):
Values belong to the compound of their own block, whether it stands above or below them.

What was measured:
Cytochrome P450 2C9 = Cytochrome P450 2C9 (Homo sapiens, UniProt P11712); assay: Inhibition of CYP2C9 in human liver microsomes using diclofenac as substrate after 5 to 60 mins by LC-MS/MS analysis; type: ADME, Microsome
[1] = Blood clearance in Sprague-Dawley rat at 2.2 mg/kg, iv by LC-MS/MS analysis; type: ADME, organism-based; parameters: dose 2.2 mg/kg, route intravenous; conditions: whole blood
Cytochrome P450 2C19 = Cytochrome P450 2C19 (Homo sapiens, UniProt P33261); assay: Inhibition of CYP2C19 in human liver microsomes using mephenytoin as substrate after 5 to 60 mins by LC-MS/MS analysis; type: ADME, Microsome
Chain of Cytochrome P450 2C19 (P33261 whole entry): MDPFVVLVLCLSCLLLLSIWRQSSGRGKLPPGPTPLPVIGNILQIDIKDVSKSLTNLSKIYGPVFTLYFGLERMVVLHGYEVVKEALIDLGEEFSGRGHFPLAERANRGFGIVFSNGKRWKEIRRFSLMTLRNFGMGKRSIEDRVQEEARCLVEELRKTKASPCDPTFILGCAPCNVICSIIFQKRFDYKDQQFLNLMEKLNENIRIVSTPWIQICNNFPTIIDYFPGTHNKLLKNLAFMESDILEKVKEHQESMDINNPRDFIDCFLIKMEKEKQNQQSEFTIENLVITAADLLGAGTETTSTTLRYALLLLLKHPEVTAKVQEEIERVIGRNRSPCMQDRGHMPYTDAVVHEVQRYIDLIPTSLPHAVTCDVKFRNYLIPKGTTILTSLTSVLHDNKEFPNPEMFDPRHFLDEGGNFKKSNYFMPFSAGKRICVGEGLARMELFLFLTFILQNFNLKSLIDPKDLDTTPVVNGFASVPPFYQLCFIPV

Cytochrome P450 1A2 = target: T1, Cytochrome P450 1A2 (Homo sapiens, UniProt P05177); assay: Inhibition of CYP1A2 in human liver microsomes using phenacetin as substrate after 5 to 60 mins by LC-MS/MS analysis; type: ADME, Microsome
T1 sequence (P05177 whole entry): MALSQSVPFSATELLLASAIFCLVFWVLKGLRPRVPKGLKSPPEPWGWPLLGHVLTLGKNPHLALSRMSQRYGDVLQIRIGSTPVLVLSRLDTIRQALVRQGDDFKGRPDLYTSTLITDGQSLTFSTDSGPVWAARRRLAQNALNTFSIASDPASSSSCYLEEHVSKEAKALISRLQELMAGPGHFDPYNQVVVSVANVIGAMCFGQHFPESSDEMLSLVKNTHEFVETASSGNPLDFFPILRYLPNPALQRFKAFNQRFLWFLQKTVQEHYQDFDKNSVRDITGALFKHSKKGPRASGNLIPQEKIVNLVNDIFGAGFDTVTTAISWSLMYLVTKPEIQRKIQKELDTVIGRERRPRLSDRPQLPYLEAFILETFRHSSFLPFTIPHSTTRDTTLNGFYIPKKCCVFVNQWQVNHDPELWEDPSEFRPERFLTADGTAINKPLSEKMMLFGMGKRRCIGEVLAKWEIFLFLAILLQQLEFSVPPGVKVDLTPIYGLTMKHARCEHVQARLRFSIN

Cytochrome P450 2D6 [2] = target: T2, Cytochrome P450 2D6 (Homo sapiens, UniProt P10635); assay: Inhibition of CYP2D6 in human liver microsomes using dextromethorphan as substrate after 5 to 60 mins by LC-MS/MS analysis; type: ADME, Microsome
T2 sequence (P10635 whole entry): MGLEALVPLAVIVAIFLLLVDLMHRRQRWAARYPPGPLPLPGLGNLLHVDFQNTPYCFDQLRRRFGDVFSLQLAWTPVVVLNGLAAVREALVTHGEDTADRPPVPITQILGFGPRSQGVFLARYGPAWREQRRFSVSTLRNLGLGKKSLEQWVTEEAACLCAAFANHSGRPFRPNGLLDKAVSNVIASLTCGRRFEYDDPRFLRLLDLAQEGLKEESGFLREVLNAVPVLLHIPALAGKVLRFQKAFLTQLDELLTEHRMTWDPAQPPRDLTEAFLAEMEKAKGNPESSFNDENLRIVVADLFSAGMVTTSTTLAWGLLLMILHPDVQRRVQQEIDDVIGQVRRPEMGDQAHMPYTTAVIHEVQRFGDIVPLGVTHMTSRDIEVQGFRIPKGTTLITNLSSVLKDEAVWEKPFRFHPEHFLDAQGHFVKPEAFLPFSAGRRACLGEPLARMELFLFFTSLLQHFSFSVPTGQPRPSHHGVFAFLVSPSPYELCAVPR

Cytochrome P450 2C8 = target: T3, Cytochrome P450 2C8 (Homo sapiens, UniProt P10632); assay: Inhibition of CYP2C8 in human liver microsomes using paclitaxel as substrate after 5 to 60 mins by LC-MS/MS analysis; type: ADME, Microsome
T3 sequence (P10632 whole entry): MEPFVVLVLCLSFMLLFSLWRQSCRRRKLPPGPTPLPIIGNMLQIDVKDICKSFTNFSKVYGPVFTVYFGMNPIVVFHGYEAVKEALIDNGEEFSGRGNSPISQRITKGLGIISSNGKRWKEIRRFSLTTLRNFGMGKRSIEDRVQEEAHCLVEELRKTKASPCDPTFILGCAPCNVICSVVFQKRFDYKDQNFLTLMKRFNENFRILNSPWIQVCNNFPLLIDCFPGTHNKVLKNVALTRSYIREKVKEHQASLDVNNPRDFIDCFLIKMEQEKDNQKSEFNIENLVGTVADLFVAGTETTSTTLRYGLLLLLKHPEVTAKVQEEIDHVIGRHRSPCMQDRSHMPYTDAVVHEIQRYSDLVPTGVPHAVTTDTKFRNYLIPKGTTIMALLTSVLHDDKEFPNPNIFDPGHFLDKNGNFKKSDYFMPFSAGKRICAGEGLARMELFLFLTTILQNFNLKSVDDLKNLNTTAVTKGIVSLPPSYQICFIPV

[3] = target: T4, Eukaryotic translation initiation factor 2-alpha kinase 3 (Homo sapiens, UniProt Q9NZJ5); assay: Inhibition of GST-tagged PERK cytoplasmic domain (536 to 1116) (unknown origin) assessed as biotinylated His6-tagged EIF2alpha phosphorylation preincubated for 30 mins followed by ATP and eIF2alpha addition measured after 1 hr by HTRF assay
T4 sequence (Q9NZJ5 whole entry): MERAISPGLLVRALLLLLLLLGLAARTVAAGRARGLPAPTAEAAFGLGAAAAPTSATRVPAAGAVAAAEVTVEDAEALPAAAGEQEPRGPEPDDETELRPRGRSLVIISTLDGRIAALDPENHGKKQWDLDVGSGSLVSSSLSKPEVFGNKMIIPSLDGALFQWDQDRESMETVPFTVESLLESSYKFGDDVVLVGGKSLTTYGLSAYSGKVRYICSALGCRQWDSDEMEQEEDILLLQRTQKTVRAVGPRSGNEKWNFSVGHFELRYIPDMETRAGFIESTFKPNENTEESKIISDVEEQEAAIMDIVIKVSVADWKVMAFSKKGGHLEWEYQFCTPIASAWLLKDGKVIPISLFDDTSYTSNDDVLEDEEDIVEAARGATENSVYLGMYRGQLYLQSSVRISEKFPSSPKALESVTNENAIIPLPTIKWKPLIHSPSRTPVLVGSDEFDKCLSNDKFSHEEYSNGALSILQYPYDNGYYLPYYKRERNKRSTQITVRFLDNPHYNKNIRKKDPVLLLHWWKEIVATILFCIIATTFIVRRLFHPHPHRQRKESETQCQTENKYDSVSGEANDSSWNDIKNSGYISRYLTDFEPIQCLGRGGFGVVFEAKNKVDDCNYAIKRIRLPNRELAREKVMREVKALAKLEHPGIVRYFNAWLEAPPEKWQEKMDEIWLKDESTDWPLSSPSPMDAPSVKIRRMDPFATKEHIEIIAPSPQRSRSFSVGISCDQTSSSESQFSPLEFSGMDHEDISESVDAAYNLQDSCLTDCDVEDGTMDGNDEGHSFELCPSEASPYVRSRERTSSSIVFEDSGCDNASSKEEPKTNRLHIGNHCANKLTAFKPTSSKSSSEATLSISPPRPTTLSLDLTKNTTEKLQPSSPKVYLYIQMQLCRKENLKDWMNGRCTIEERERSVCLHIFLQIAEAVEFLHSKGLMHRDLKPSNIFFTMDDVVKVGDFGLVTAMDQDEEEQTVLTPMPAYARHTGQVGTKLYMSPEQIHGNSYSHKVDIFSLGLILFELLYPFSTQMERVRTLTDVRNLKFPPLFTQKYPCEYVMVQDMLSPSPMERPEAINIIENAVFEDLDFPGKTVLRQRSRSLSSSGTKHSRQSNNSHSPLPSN

[4] = target: T4, Eukaryotic translation initiation factor 2-alpha kinase 3; assay: Inhibition of thapsigargin-induced autophosphorylation of PERK in human A549 cells preincubated for 1 hr followed by thapsigargin-induction measured after 1 hr by Western blotting analysis; type: cell-based
[5] = AUC (0 to infinity) in beagle dog at 2.9 mg/kg, iv by LC-MS/MS analysis; type: ADME, organism-based, Canis lupus familiaris; parameters: time infinity, dose 2.9 mg/kg, route intravenous; conditions: plasma
[6] = Blood clearance in CD1 mouse at 2 mg/kg, iv by LC-MS/MS analysis; type: ADME, organism-based; parameters: dose 2 mg/kg, route intravenous; conditions: whole blood
[7] = target: Interferon-induced, double-stranded RNA-activated protein kinase (Homo sapiens, UniProt P19525); assay: Inhibition of PKR (unknown origin) assessed as EIF2AK2 phosphorylation
Chain of Interferon-induced, double-stranded RNA-activated protein kinase (P19525 whole entry): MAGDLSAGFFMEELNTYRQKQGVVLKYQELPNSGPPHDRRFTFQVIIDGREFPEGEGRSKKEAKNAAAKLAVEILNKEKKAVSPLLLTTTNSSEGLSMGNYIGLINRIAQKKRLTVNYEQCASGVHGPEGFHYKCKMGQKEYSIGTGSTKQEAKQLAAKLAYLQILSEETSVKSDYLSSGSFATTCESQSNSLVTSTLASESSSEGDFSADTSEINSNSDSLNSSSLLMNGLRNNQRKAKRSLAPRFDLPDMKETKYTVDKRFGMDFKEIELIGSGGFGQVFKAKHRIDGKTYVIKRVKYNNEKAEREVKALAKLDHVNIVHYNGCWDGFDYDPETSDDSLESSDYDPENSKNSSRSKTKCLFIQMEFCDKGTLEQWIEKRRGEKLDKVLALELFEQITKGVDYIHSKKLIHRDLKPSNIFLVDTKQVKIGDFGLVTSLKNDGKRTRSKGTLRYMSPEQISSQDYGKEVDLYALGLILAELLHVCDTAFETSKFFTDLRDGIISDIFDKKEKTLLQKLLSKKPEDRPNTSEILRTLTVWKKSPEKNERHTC

[8] = Blood clearance in beagle dog at 2.9 mg/kg, iv by LC-MS/MS analysis; type: ADME, organism-based, Canis lupus familiaris; parameters: dose 2.9 mg/kg, route intravenous; conditions: whole blood
eIF-2-alpha kinase GCN2 = eIF-2-alpha kinase GCN2 (Homo sapiens, UniProt Q9P2K8); assay: Inhibition of GCN2 (unknown origin) assessed as EIF2AK4 phosphorylation
Chain of eIF-2-alpha kinase GCN2 (Q9P2K8 whole entry): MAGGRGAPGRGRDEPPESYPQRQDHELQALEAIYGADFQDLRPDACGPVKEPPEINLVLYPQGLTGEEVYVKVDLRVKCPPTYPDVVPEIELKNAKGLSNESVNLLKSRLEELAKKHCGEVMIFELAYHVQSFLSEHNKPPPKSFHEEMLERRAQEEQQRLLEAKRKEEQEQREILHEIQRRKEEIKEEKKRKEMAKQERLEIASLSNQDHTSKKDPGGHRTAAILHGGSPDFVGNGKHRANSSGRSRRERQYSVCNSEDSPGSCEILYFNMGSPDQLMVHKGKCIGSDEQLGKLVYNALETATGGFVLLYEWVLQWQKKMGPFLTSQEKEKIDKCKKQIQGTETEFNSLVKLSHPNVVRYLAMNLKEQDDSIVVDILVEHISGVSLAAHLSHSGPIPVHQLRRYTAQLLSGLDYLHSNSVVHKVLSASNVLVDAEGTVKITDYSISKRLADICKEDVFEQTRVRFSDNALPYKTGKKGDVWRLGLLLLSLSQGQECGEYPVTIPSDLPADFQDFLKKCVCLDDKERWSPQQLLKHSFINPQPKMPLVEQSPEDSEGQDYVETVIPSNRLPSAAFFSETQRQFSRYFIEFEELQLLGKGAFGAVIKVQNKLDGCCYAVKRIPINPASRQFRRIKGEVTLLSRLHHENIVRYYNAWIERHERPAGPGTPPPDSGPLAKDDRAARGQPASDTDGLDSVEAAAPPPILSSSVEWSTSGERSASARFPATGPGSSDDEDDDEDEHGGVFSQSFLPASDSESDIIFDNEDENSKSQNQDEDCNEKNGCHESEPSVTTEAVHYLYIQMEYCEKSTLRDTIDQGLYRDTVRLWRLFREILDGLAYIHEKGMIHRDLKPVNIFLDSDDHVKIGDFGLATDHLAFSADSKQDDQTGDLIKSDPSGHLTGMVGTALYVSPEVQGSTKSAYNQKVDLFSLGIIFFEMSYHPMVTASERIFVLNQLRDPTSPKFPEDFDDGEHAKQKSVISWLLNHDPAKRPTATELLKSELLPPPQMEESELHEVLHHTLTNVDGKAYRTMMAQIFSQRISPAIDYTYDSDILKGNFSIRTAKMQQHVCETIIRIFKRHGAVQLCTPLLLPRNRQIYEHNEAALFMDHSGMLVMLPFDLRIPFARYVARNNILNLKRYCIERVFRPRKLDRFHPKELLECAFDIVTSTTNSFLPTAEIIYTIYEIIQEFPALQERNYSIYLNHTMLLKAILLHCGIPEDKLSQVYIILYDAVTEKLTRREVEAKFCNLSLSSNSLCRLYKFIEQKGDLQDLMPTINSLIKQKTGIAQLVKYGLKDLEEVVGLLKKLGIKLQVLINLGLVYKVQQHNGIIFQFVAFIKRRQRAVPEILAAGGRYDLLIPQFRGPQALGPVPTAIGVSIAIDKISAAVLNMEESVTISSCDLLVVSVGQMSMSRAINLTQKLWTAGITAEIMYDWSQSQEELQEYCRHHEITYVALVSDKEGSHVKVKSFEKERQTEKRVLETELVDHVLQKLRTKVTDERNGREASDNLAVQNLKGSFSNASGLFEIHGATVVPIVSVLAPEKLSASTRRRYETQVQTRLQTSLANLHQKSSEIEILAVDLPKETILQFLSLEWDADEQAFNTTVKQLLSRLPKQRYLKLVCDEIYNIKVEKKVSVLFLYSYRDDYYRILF

Cytochrome P450 2D6 [9] = target: T2, Cytochrome P450 2D6; assay: Inhibition of CYP2D6 in human liver microsomes using bufuralol as substrate after 5 to 60 mins by LC-MS/MS analysis; type: ADME, Microsome
[10] = AUC (0 to infinity) in Sprague-Dawley rat at 2.2 mg/kg, iv by LC-MS/MS analysis; type: ADME, organism-based; parameters: time infinity, dose 2.2 mg/kg, route intravenous; conditions: plasma
[11] = Volume of distribution at steady state in beagle dog at 2.9 mg/kg, iv by LC-MS/MS analysis; type: ADME, organism-based, Canis lupus familiaris; parameters: dose 2.9 mg/kg, route intravenous; conditions: in vivo, read-out: Vdss
[12] = Half life in Sprague-Dawley rat at 2.2 mg/kg, iv by LC-MS/MS analysis; type: ADME, organism-based; parameters: dose 2.2 mg/kg, route intravenous; conditions: in vivo
[13] = AUC (0 to infinity) in CD1 mouse at 2 mg/kg, iv by LC-MS/MS analysis; type: ADME, organism-based; parameters: time infinity, dose 2 mg/kg, route intravenous; conditions: plasma
[14] = Volume of distribution at steady state in CD1 mouse at 2 mg/kg, iv by LC-MS/MS analysis; type: ADME, organism-based; parameters: dose 2 mg/kg, route intravenous; conditions: in vivo, read-out: Vdss
[15] = Oral bioavailability in CD1 mouse at 13.4 mg/kg by LC-MS/MS analysis; type: ADME, organism-based; conditions: in vivo
[16] = target: Eukaryotic translation initiation factor 2-alpha kinase 1 (Homo sapiens, UniProt Q9BQI3); assay: Inhibition of HRI (unknown origin) assessed as EIF2AK1 phosphorylation
Chain of Eukaryotic translation initiation factor 2-alpha kinase 1 (Q9BQI3 whole entry): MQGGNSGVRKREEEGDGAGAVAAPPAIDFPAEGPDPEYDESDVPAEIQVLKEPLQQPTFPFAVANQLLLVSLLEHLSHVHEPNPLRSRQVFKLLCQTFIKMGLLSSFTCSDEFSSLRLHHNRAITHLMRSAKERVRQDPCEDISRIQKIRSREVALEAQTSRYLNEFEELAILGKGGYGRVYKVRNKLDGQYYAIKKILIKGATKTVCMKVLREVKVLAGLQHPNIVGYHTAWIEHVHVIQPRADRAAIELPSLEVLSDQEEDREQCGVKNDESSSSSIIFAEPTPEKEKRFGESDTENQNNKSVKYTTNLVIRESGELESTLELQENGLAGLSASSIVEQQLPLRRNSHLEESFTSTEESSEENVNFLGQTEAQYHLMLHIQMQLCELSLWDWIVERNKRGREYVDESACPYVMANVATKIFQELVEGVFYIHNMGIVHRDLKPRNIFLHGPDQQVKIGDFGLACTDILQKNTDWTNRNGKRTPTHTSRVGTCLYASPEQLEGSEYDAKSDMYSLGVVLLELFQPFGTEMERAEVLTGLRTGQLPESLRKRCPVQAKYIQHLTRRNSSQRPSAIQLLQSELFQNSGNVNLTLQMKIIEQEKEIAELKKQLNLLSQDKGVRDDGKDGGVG

[17] = Half life in CD1 mouse at 2 mg/kg, iv by LC-MS/MS analysis; type: ADME, organism-based; parameters: dose 2 mg/kg, route intravenous; conditions: in vivo
[18] = Oral bioavailability in Sprague-Dawley rat at 4.3 mg/kg by LC-MS/MS analysis; type: ADME, organism-based; conditions: in vivo
[19] = Oral bioavailability in beagle dog at 5.2 mg/kg by LC-MS/MS analysis; type: ADME, organism-based, Canis lupus familiaris; conditions: in vivo
[20] = AUC (0 to infinity) in CD1 mouse at 13.4 mg/kg, po by LC-MS/MS analysis; type: ADME, organism-based; parameters: time infinity, dose 13.4 mg/kg, route oral; conditions: plasma
[21] = Half life in beagle dog at 2.9 mg/kg, iv by LC-MS/MS analysis; type: ADME, organism-based, Canis lupus familiaris; parameters: dose 2.9 mg/kg, route intravenous; conditions: in vivo
[22] = AUC (0 to infinity) in Sprague-Dawley rat at 4.3 mg/kg, po by LC-MS/MS analysis; type: ADME, organism-based; parameters: time infinity, dose 4.3 mg/kg, route oral; conditions: plasma
[23] = Volume of distribution at steady state in Sprague-Dawley rat at 2.2 mg/kg, iv by LC-MS/MS analysis; type: ADME, organism-based; parameters: dose 2.2 mg/kg, route intravenous; conditions: in vivo, read-out: Vdss
[24] = AUC (0 to infinity) in beagle dog at 5.2 mg/kg, po by LC-MS/MS analysis; type: ADME, organism-based, Canis lupus familiaris; parameters: time infinity, dose 5.2 mg/kg, route oral; conditions: plasma

Chain of Cytochrome P450 2C9 (P11712 whole entry): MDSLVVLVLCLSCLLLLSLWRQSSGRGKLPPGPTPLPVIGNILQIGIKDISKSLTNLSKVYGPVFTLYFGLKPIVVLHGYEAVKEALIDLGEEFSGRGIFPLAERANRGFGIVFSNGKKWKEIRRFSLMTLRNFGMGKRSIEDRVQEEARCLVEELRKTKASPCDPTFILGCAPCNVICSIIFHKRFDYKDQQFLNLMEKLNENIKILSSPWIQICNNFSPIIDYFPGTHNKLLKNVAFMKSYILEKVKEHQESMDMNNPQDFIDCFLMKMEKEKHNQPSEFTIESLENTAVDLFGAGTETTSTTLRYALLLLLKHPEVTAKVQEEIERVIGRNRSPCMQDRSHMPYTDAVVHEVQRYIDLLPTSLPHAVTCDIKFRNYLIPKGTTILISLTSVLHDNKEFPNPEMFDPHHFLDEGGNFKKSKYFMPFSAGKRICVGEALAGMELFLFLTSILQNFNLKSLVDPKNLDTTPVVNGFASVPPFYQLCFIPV

Structure (SMILES): Cn1cc(-c2ccc3c(c2)CCN3C(=O)Cc2cccc(C(F)(F)F)c2)c2c(N)ncnc21
- IC50 (Cytochrome P450 2C9): 4500 nM
- clearance [1]: 21.5 mL/min/kg
- IC50 (Cytochrome P450 2C19): 7000 nM
- IC50 (Cytochrome P450 1A2): 21000 nM
- IC50 (Cytochrome P450 2D6 [2]): 23000 nM
- IC50 (Cytochrome P450 2C8): 890 nM

- IC50 [3]: 19.1 nM
Structure (SMILES): Cn1cc(-c2ccc3c(c2)CCN3C(=O)Cc2ccccn2)c2c(N)ncnc21

- IC50 [3]: 23.4 nM
Structure (SMILES): Cn1cc(-c2ccc3c(c2)CCN3C(=O)Cc2cccnc2)c2c(N)ncnc21

- IC50 [3]: 63.8 nM
Structure (SMILES): Cn1cc(-c2ccc3c(c2)CCN3C(=O)Cc2ccncc2)c2c(N)ncnc21

- clearance [1]: 10.5 mL/min/kg
- IC50 [3]: 2.5 nM
- IC50 [4]: 100 nM
Structure (SMILES): Cc1cccc(CC(=O)N2CCc3cc(-c4cn(C)c5ncnc(N)c45)ccc32)n1

- IC50 (Cytochrome P450 2C9): 24700 nM
- AUC(0-inf) [5]: 3130 ng·h/mL
- clearance [6]: 10.5 mL/min/kg
- IC50 [7]: 905 nM
- clearance [8]: 15.5 mL/min/kg
- clearance [1]: 9.5 mL/min/kg
- IC50 (eIF-2-alpha kinase GCN2): 3390 nM
- IC50 (Cytochrome P450 2D6 [9]): > 25000 nM
- IC50 [3]: 0.8 nM
- AUC(0-inf) [10]: 3920 ng·h/mL
- Vd [11]: 2.8 L/kg
- half-life [12]: 1.4 h
- AUC(0-inf) [13]: 3270 ng·h/mL
- Vd [14]: 0.72 L/kg
- IC50 [4]: 30 nM
- bioavailability [15]: 52%
- IC50 [16]: 460 nM
- IC50 (Cytochrome P450 2C19): > 25000 nM
- half-life [17]: 1.25 h
- bioavailability [18]: 100%
- bioavailability [19]: 100%
- AUC(0-inf) [20]: 13400 ng·h/mL
- IC50 (Cytochrome P450 1A2): > 25000 nM
- half-life [21]: 3.1 h
- IC50 (Cytochrome P450 2C8): > 25000 nM
- AUC(0-inf) [22]: 8020 ng·h/mL
- Vd [23]: 0.6 L/kg
- AUC(0-inf) [24]: 6210 ng·h/mL
Structure (SMILES): Cc1cccc(CC(=O)N2CCc3c2ccc(-c2cn(C)c4ncnc(N)c24)c3F)n1
